This is an account of results in ChEMBL document CHEMBL1781912, “In search of patterns over physicochemical properties and pharmacological activities for a set of [MCl₂(thiosemicarbazone)] complexes (M=Pt/Pd): support for multiple mechanisms of antichagasic action excluding DNA-bonding in vivo?” (Eur J Med Chem, 2011).

Bounds are passed on as bounds.

In the test the test system is Trypanosoma cruzi. Briefly: Antichagasic activity against Trypanosoma cruzi Tulahuen 2. Format: functional, organism-based.
One may read the IC50 as the concentration that inhibits the measured activity by half. High values mean lower potency, low ones higher potency. In the case of `O=[N+]([O-])c1ccc(/C=C/C=N/NC(=S)Nc2ccccc2)o1`, it took 3.6 µM to reach half-maximal inhibition (IC50).

Take `NC(=S)N/N=C/c1ccc([N+](=O)[O-])o1`: the IC50 worked out at 2.7 µM.

`NC(=S)N/N=C\C=C\c1ccc([N+](=O)[O-])o1` returned an IC50 of 3.5 µM.

As to `CNC(=S)N/N=C/C=C/c1ccc([N+](=O)[O-])o1`, the IC50 is 4.5 µM.

Compound `CCNC(=S)N/N=C/c1ccc([N+](=O)[O-])o1` returned a 50% inhibitory concentration (IC50) of 4.9 µM.

In the case of `CCNC(=S)N/N=C/C=C/c1ccc([N+](=O)[O-])o1`, half-maximal inhibition (IC50) required 4.1 µM.

Take `CNC(=S)N/N=C/c1ccc([N+](=O)[O-])o1`: 5 µM corresponded to half-maximal inhibition (IC50).

In turn, `O=[N+]([O-])c1ccc(/C=N/NC(=S)Nc2ccccc2)o1` showed a half-inhibitory concentration (IC50) above 25 µM.

In turn, `CC1CS(=O)(=O)CCN1/N=C/c1ccc([N+](=O)[O-])o1` (centres undefined) [NIFURTIMOX] came in with an IC50 of 6.1 µM.
